The values that follow come from US20230136562A1, “SPIROUREA DERIVATIVES” (Idorsia Pharmaceuticals Ltd, priority 2020, published 2023).

For this experiment, the system named is primary neuronal cultures from embryonic rat brains. In words: Rat oscillation assay (FLIPR, neuronal calcium oscillations). Type of experiment: cell-based. The method, boiled down:
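Cortical neurons from E18 Wistar rat embryos, cultured 8–10 days at high density, loaded with 1 μM Fluo-8 AM; calcium oscillations recorded by FLIPR once per second in Mg-free HBSS with 2 mM CaCl2, 20 mM HEPES, pH 7.4. Two acquisitions ("Acute", 500 sec, compound added at 250 sec; "20 min"), ± Kv7 blocker XE-991.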

Where [1] appears, read: Rattus norvegicus, 20 min, AUC of fluorescence measured 20 min after compound addition, read-out: FLIPR: IC50 [nM] 20 min.
Setting [2] is: Rattus norvegicus, Acute phase, ratio of AUC fluorescence before and after compound addition, read-out: FLIPR: IC50 [nM] acute.

Read-outs that look alike come from different tables or passages of the source.

What is called IC50 is the point on the concentration scale where inhibition reaches its midpoint.

For `CC(Oc1cccc(C2(NC(=O)NC3CC4(CC4)C3)CC2)c1)C(F)(F)F` (racemic) [Example 135, (±)-1-Spiro[2.3]hex-5-yl-3-{1-[3-(2,2,2-trifluoro-1-methyl-ethoxy)-phenyl]-cyclopropyl}-urea], the IC50 was 115 nM under setting [1] and 133 nM under setting [2].

Take `CC(NC(=O)NC1CC2(CCC2)C1)c1cc(OCC(F)(F)F)ccc1F` (racemic) [Example 99, (±)-1-{1-[2-Fluoro-5-(2,2,2-trifluoro-ethoxy)-phenyl]-ethyl}-3-spiro[3.3]hept-2-yl-urea]: the IC50 runs as follows: under setting [1], 20 nM; under setting [2], 32 nM.

Regarding `N#CCC(NC(=O)NC1CC2(CCC2)C1)c1cccc(C(F)(F)F)c1` (racemic) [Example 67, (±)-1-[2-Cyano-1-(3-trifluoromethyl-phenyl)-ethyl]-3-spiro[3.3]hept-2-yl-urea], the IC50 turned out to be 11 nM under setting [1] and 10 nM under setting [2].

In the case of `CC(NC(=O)NC1CC2(CCC2)C1)c1cccc2c1OC(F)(F)O2` (racemic) [Example 47, (±)-1-[1-(2,2-Difluoro-benzo[1,3]dioxol-4-yl)-ethyl]-3-spiro[3.3]hept-2-yl-urea], the IC50 reads like this: under setting [1], 222 nM; under setting [2], 103 nM.

On to `O=C(NC1CC2(CCC2)C1)NC(c1cccc(C(F)(F)F)c1)C(F)F` (centres unmarked) [Example 57, 1-[2,2-Difluoro-1-(3-trifluoromethyl-phenyl)-ethyl]-3-spiro[3.3]hept-2-yl-urea], for which the IC50 by setting is: under setting [1], 2.3 nM; under setting [2], 2.9 nM.

In the case of `CCOCCC(NC(=O)NC1CC2(CCC2)C1)c1cccc(C(F)(F)F)c1` (racemic) [Example 73, (±)-1-[3-Ethoxy-1-(3-trifluoromethyl-phenyl)-propyl]-3-spiro[3.3]hept-2-yl-urea], the IC50 under setting [1] amounted to 244 nM and the IC50 under setting [2] was determined as 305 nM.

Consider `O=C(NCc1cccc(S(F)(F)(F)(F)F)c1)NC1CC2(CC2)C1` [Example 130, 1-(3-(pentafluoro-λ^6-sulfaneyl)benzyl)-3-(spiro[2.3]hexan-5-yl)urea], for which the IC50 under setting [1] came out at 42 nM and the IC50 under setting [2] turned out to be 30 nM.

For the compound `CC(Oc1cccc(C2(NC(=O)NC3CC4(CCC4)C3)CC2)c1)C(F)(F)F` (single isomer, unassigned) [Example 169, 1-Spiro[3.3]hept-2-yl-3-{1-[3-(2,2,2-trifluoro-1-methyl-ethoxy)-phenyl]-cyclopropyl}-urea], the IC50 was determined as 20 nM (AUC of fluorescence measured 20 min after compound addition, read-out: FLIPR: IC50 [nM] 20 min) and 42 nM under setting [2].

As for `O=C(NCc1cccc(C(F)(F)F)c1)NC1CC2(C1)CC(F)(F)C2` [Example 6, 1-(6,6-Difluoro-spiro[3.3]hept-2-yl)-3-(3-trifluoromethyl-benzyl)-urea], the IC50 under setting [1] stood at 112 nM and the IC50 under setting [2] was 62 nM.

Turning to `O=C(NCc1cc(F)cc(C(F)(F)F)c1)NC1CC2(CC2)C1` [Example 142, 1-(3-Fluoro-5-trifluoromethyl-benzyl)-3-spiro[2.3]hex-5-yl-urea], the IC50 is, setting by setting: under setting [1], 277 nM; under setting [2], 204 nM.

On to `COc1c(OCC(F)(F)F)ncnc1C(C)NC(=O)NC1CC2(CC2)C1` (racemic) [Example 152, (±)-1-{1-[5-Methoxy-6-(2,2,2-trifluoro-ethoxy)-pyrimidin-4-yl]-ethyl}-3-spiro[2.3]hex-5-yl-urea], for which the IC50 stood at 532 nM under setting [1] and 520 nM under setting [2].

`CC(NC(=O)NC1CC2(CCC2)C1)c1ccnc(OC(F)F)c1` (racemic) [Example 100, (±)-1-[1-(2-Difluoromethoxy-pyridin-4-yl)-ethyl]-3-spiro[3.3]hept-2-yl-urea]: the IC50 by setting is: under setting [1], 3.6 nM; under setting [2], 5.9 nM.

For the compound `O=C(NC1CC2(CC2)C1)NC(CO)c1cccc(C(F)(F)F)c1` (racemic) [Example 143, (±)-1-[2-Hydroxy-1-(3-trifluoromethyl-phenyl)-ethyl]-3-spiro[2.3]hex-5-yl-urea], the IC50 runs as follows: under setting [1], 61 nM; under setting [2], 42 nM.

Regarding `O=C(NC1CC2(CCC2)C1)NC1(c2cccc(C(F)(F)F)c2)COC1` [Example 44, 1-Spiro[3.3]hept-2-yl-3-[3-(3-trifluoromethyl-phenyl)-oxetan-3-yl]-urea], the IC50 reads like this: under setting [1], 100 nM; under setting [2], 78 nM.

As for `O=C(NCc1cccc(OC(F)F)c1)NC1CC2(CCC2)C1` [Example 13, 1-(3-Difluoromethoxy-benzyl)-3-spiro[3.3]hept-2-yl-urea], the IC50 is 133 nM under setting [1] and 88 nM under setting [2].

For the compound `CC(NC(=O)NC1CC2(CCC2)C1)c1cc(OCC(F)(F)F)ncn1` (racemic) [Example 61, (±)-1-Spiro[3.3]hept-2-yl-3-{1-[6-(2,2,2-trifluoro-ethoxy)-pyrimidin-4-yl]-ethyl}-urea], the IC50 under setting [1] worked out at 25 nM and the IC50 under setting [2] amounted to 14 nM.

Regarding `Cc1ccc(CNC(=O)NC2CC3(CCC3)C2)cc1OCC(F)(F)F` [Example 109, 1-[4-Methyl-3-(2,2,2-trifluoro-ethoxy)-benzyl]-3-spiro[3.3]hept-2-yl-urea], the IC50 runs as follows: under setting [1], 262 nM; under setting [2], 200 nM.

With `Cn1nnnc1C(NC(=O)NC1CC2(CCC2)C1)c1cccc(C(F)(F)F)c1` (racemic) [Example 163, (±)-1-[(1-Methyl-1H-tetrazol-5-yl)-(3-trifluoromethyl-phenyl)-methyl]-3-spiro[3.3]hept-2-yl-urea], the IC50 under setting [1] was 282 nM and the half-maximal inhibitory concentration (IC50) under setting [2] stood at 204 nM.

Consider `O=C(NCc1cc(C(F)(F)F)ccc1F)NC1CC2(CC2)C1` [Example 151, 1-(2-Fluoro-5-trifluoromethyl-benzyl)-3-spiro[2.3]hex-5-yl-urea], for which the half-inhibitory concentration (IC50) is, setting by setting: under setting [1], 419 nM; under setting [2], 269 nM.

As for `CN(CC(F)(F)F)c1cc(CNC(=O)NC2CC3(CCC3)C2)ccn1` [Example 115, 1-{2-[Methyl-(2,2,2-trifluoro-ethyl)-amino]-pyridin-4-ylmethyl}-3-spiro[3.3]hept-2-yl-urea], the IC50 was 241 nM under setting [1] and 185 nM under setting [2].

For the compound `O=C(NCc1nccc(OCC(F)(F)F)n1)NC1CC2(CC2)C1` [Example 126, 1-Spiro[2.3]hex-5-yl-3-[4-(2,2,2-trifluoro-ethoxy)-pyrimidin-2-ylmethyl]-urea], the IC50 by setting is: under setting [1], 7620 nM; under setting [2], 4960 nM.

With `CC(NC(=O)NC1CC2(CC2)C1)c1cc(F)cc(OCC(F)(F)F)c1` (racemic) [Example 132, (±)-1-{1-[3-Fluoro-5-(2,2,2-trifluoro-ethoxy)-phenyl]-ethyl}-3-spiro[2.3]hex-5-yl-urea], the IC50 by setting is: under setting [1], 110 nM; under setting [2], 79 nM.

Turning to `O=C(NCc1cccc(OC(F)(F)F)c1F)NC1CC2(CC2)C1` [Example 134, 1-(2-Fluoro-3-trifluoromethoxy-benzyl)-3-spiro[2.3]hex-5-yl-urea], the half-maximal inhibitory concentration (IC50) reads like this: under setting [1], 82 nM; under setting [2], 63 nM.

In the case of `O=C(NC1CC2(CCC2)C1)N[C@H](CO)c1cccc(C(F)(F)F)c1` (single isomer, unassigned) [Example 185], the IC50 under setting [1] worked out at 753 nM and the IC50 under setting [2] amounted to 936 nM.

In the case of `CC(C)(NC(=O)NC1CC2(CCC2)C1)c1ccnc(OC(F)F)c1` [Example 52, 1-[1-(2-Difluoromethoxy-pyridin-4-yl)-1-methyl-ethyl]-3-spiro[3.3]hept-2-yl-urea], the IC50 runs as follows: under setting [1], 143 nM; under setting [2], 72 nM.

As to `O=C(NC1CC2(CCC2)C1)NC1(c2ccnc(OC(F)F)c2)CCC1` [Example 51, 1-[1-(2-Difluoromethoxy-pyridin-4-yl)-cyclobutyl]-3-spiro[3.3]hept-2-yl-urea], the IC50 runs as follows: under setting [1], 65 nM; under setting [2], 80 nM.

For `O=C(NC1CC2(CCC2)C1)NC1COc2ccc(OC(F)(F)F)cc21` (racemic) [Example 11, (±)-1-Spiro[3.3]hept-2-yl-3-(5-trifluoromethoxy-2,3-dihydro-benzofuran-3-yl)-urea], the IC50 reads like this: under setting [1], 171 nM; under setting [2], 246 nM.

Consider `O=C(NC1CC2(CCC2)C1)NC(c1cccc(C(F)(F)F)c1)C1CC1` (racemic) [Example 24, (±)-1-[Cyclopropyl-(3-trifluoromethyl-phenyl)-methyl]-3-spiro[3.3]hept-2-yl-urea], for which the IC50 came to 8.6 nM under setting [1] and 14 nM under setting [2].

`O=C(NCc1ccc(F)c(OCC(F)(F)F)c1)NC1CC2(CCC2)C1` [Example 114, 1-[4-Fluoro-3-(2,2,2-trifluoro-ethoxy)-benzyl]-3-spiro[3.3]hept-2-yl-urea]: the IC50 is, setting by setting: under setting [1], 61 nM; under setting [2], 107 nM.

As for `NC(=O)C(NC(=O)NC1CC2(CCC2)C1)c1cccc(C(F)(F)F)c1` (racemic) [Example 62, (±)-2-(3-Spiro[3.3]hept-2-yl-ureido)-2-(3-trifluoromethyl-phenyl)-acetamide], the 50% inhibitory concentration (IC50) runs as follows: under setting [1], 65 nM; under setting [2], 50 nM.

Consider `CC(NC(=O)NC1CC2(CCC2)C1)c1ccc(F)c(OCC(F)(F)F)c1` (racemic) [Example 113, (±)-1-{1-[4-Fluoro-3-(2,2,2-trifluoro-ethoxy)-phenyl]-ethyl}-3-spiro[3.3]hept-2-yl-urea], for which the IC50 by setting is: under setting [1], 22 nM; under setting [2], 33 nM.

For the compound `N#CCC(NC(=O)NC1CC2(CCC2)C1)c1cccc(OC(F)(F)F)c1` (racemic) [Example 66, (±)-1-[2-Cyano-1-(3-trifluoromethoxy-phenyl)-ethyl]-3-spiro[3.3]hept-2-yl-urea], the IC50 runs as follows: under setting [1], 17 nM; under setting [2], 8.2 nM.

Regarding `O=C(NCc1cccc(C(F)F)c1)NC1CC2(CC2)C1` [Example 158, 1-(3-Difluoromethyl-benzyl)-3-spiro[2.3]hex-5-yl-urea], the IC50 worked out at 414 nM under setting [1] and 390 nM under setting [2].

On to `CC(NC(=O)NC1CC2(CC2)C1)c1cccc(S(F)(F)(F)(F)F)c1` (racemic) [Example 127, (±)-1-(1-(3-(pentafluoro-λ^6-sulfaneyl)phenyl)ethyl)-3-(spiro[2.3]hexan-5-yl)urea], for which the IC50 worked out at 22 nM under setting [1] and 19 nM under setting [2].
